Measurements: patent publication US8735364B2, “Antisense modulation of apolipoprotein B expression” (Genzyme Corporation, priority 2001, dated 2014)
Oligonucleotides are written 5' to 3', each unit as a sugar letter and its base; * is a phosphorothioate linkage, no mark a phosphodiester; rarer units and linkages stand in square brackets, end groups in braces. Plain capitals give the bases only. e = 2'-O-(2-methoxyethyl) (MOE); [5mC] = 5-methylcytosine; d = 2'-deoxy (DNA)

Tested on: mouse apolipoprotein B mRNA
Assay: Inhibition of mouse apolipoprotein B mRNA levels in primary hepatocytes, quantitative real-time PCR
Assay type: cell-based
Set-up: %INHIB of mouse apolipoprotein B mRNA levels: concentration or dose not given beside the values
Conditions: for %INHIB of mouse apolipoprotein B mRNA levels: averages from two experiments
Method: Primary mouse hepatocytes were prepared from CD-1 mice purchased from Charles River Labs (Wilmington, Mass.) and were routinely cultured in Hepatoyte Attachment Media (Gibco) supplemented with 10% Fetal Bovine Serum (Gibco/Life Technologies, Gaithersburg, Md.), 250 nM dexamethasone (Sigma), and 10 nM bovine insulin (Sigma). Cells were seeded into 96-well plates (Falcon-Primaria #3872) at a density of 10000 cells/well for use in RT-PCR analysis.
When cells reached 80% confluency, they were treated with oligonucleotide. For cells grown in 96-well plates, wells were washed once with 200 μL OPTI-MEM™-1 reduced-serum medium (Gibco BRL) and then treated with 130 μL of OPTI-MEM™-1 containing 3.75 μg/mL LIPOFECTIN™ (Gibco BRL) and the desired concentration of oligonucleotide. After 4-7 hours of treatment, the medium was replaced with fresh medium. Cells were harvested 16-24 hours after oligonucleotide treatment.
Quantitation of apolipoprotein B mRNA levels was determined by real-time quantitative PCR using the ABI PRISM™ 7700 Sequence Detection System (PE-Applied Biosystems, Foster City, Calif.) according to manufacturer's instructions. This is a closed-tube, non-gel-based, fluorescence detection system which allows high-throughput quantitation of polymerase chain reaction (PCR) products in real-time. As opposed to standard PCR, in which amplification products are quantitated after the PCR is completed, products in real-time quantitative PCR are quantitated as they accumulate. This is accomplished by including in the PCR reaction an oligonucleotide probe that anneals specifically between the forward and reverse PCR primers, and contains two fluorescent dyes. A reporter dye (e.g., JOE, FAM, or VIC, obtained from either Operon Technologies Inc., Alameda, Calif. or PE-Applied Biosystems, Foster City, Calif.) is attached to the 5′ end of the probe and a quencher dye (e.g., TAMRA, obtained from either Operon Technologies Inc., Alameda, Calif. or PE-Applied Biosystems, Foster City, Calif.) is attached to the 3′ end of the probe. When the probe and dyes are intact, reporter dye emission is quenched by the proximity of the 3′ quencher dye. During amplification, annealing of the probe to the target sequence creates a substrate that can be cleaved by the 5′-exonuclease activity of Taq polymerase. […] With each cycle, additional reporter dye molecules are cleaved from their respective probes, and the fluorescence intensity is monitored at regular intervals by laser optics built into the ABI PRISM™ 7700 Sequence Detection System. In each assay, a series of parallel reactions containing serial dilutions of mRNA from untreated control samples generates a standard curve that is used to quantitate the percent inhibition after antisense oligonucleotide treatment of test samples.
PCR reagents were obtained from PE-Applied Biosystems, Foster City, Calif. RT-PCR reactions were carried out by adding 25 μL PCR cocktail (1× TAQMAN™ buffer A, 5.5 mM MgCl2, 300 μM each of DATP, dCTP and dGTP, 600 μM of dUTP, 100 nM each of forward primer, reverse primer, and probe, 20 Units RNAse inhibitor, 1.25 Units AMPLITAQ GOLD™, and 12.5 Units MuLV reverse transcriptase) to 96 well plates containing 25 μL total RNA solution. The RT reaction was carried out by incubation for 30 minutes at 48° C. Following a 10 minute incubation at 95° C. to activate the AMPLITAQ GOLD™, 40 cycles of a two-step PCR protocol were carried out: 95° C. for 15 seconds (denaturation) followed by 60° C. for 1.5 minutes (annealing/extension).
Gene target quantities obtained by real time RT-PCR are normalized using either the expression level of GAPDH, a gene whose expression is constant, or by quantifying total RNA using RiboGreen™ (Molecular Probes, Inc. Eugene, Oreg.). GAPDH expression is quantified by real time RT-PCR, by being run simultaneously with the target, multiplexing, or separately. Total RNA is quantified using RiboGreen™ RNA quantification reagent from Molecular Probes. […]

147475 (antisense eA*eT*eT*eG*eT*dA*dT*dG*dT*dG*dA*dG*dA*dG*dG*eT*eG*eA*eG*eG) [compound 147475]
%INHIB of mouse apolipoprotein B mRNA levels: 79%

147476 (antisense eG*eA*eG*eG*eA*dG*dA*dT*dT*dG*dG*dA*dT*d[5mC]*dT*eT*eA*eA*eG*eG) [compound 147476]
%INHIB of mouse apolipoprotein B mRNA levels: 13%

147478 (antisense eT*e[5mC]*e[5mC]*eA*eG*dG*dA*dA*dT*dT*dG*dA*dG*d[5mC]*dT*eT*eG*eT*eG*e[5mC]) [compound 147478]
%INHIB of mouse apolipoprotein B mRNA levels: 78%

147480 (antisense eT*e[5mC]*eT*e[5mC]*eA*d[5mC]*d[5mC]*d[5mC]*dT*d[5mC]*dA*dT*dG*d[5mC]*dT*e[5mC]*e[5mC]*eA*eT*eT) [compound 147480]
%INHIB of mouse apolipoprotein B mRNA levels: 54%

147481 (antisense eT*eG*eA*e[5mC]*eT*dG*dT*d[5mC]*dA*dA*dG*dG*dG*dT*dG*eA*eG*e[5mC]*eT*eG) [compound 147481]
%INHIB of mouse apolipoprotein B mRNA levels: 24%

147482 (antisense eG*eT*e[5mC]*e[5mC]*eA*dG*d[5mC]*d[5mC]*dT*dA*dG*dG*dA*dA*d[5mC]*eA*e[5mC]*eT*e[5mC]*eA) [compound 147482]
%INHIB of mouse apolipoprotein B mRNA levels: 59%

147483 (antisense eA*eT*eG*eT*e[5mC]*dA*dA*dT*dG*d[5mC]*d[5mC]*dA*d[5mC]*dA*dT*eG*eT*e[5mC]*e[5mC]*eA) [compound 147483]
Percent Inhibition of mouse apolipoprotein B mRNA levels (50 nM): 56%
Percent Inhibition of mouse apolipoprotein B mRNA levels (150 nM): 88%
Percent Inhibition of mouse apolipoprotein B mRNA levels (300 nM): 89%

147484 (antisense eT*eT*e[5mC]*eA*eT*d[5mC]*d[5mC]*dG*dA*dG*dA*dA*dG*dT*dT*eG*eG*eG*eA*e[5mC]) [compound 147484]
%INHIB of mouse apolipoprotein B mRNA levels: 49%

147485 (antisense eA*eT*eT*eT*eG*dG*dG*dA*d[5mC]*dG*dA*dA*dT*dG*dT*eA*eT*eG*e[5mC]*e[5mC]) [compound 147485]
%INHIB of mouse apolipoprotein B mRNA levels: 64%

147487 (antisense eT*eT*e[5mC]*e[5mC]*e[5mC]*dA*dG*dT*d[5mC]*dA*dG*d[5mC]*dT*dT*dT*eA*eG*eT*eG*eG) [compound 147487]
%INHIB of mouse apolipoprotein B mRNA levels: 73%

147488 (antisense eA*eG*e[5mC]*eT*eT*dG*d[5mC]*dT*dT*dG*dT*dT*dG*dG*dG*e[5mC]*eA*e[5mC]*eG*eG) [compound 147488]
%INHIB of mouse apolipoprotein B mRNA levels: 72%

147489 (antisense e[5mC]*e[5mC]*eT*eA*eT*dA*d[5mC]*dT*dG*dG*d[5mC]*dT*dT*d[5mC]*dT*eA*eT*eG*eT*eT) [compound 147489]
%INHIB of mouse apolipoprotein B mRNA levels: 5%

147493 (antisense eG*e[5mC]*eT*eT*e[5mC]*dA*dT*dT*dA*dT*dA*dG*dG*dA*dG*eG*eT*eG*eG*eT) [compound 147493]
%INHIB of mouse apolipoprotein B mRNA levels: 41%

147494 (antisense eA*e[5mC]*eA*eA*e[5mC]*dT*dG*dG*dG*dA*dT*dA*dG*dT*dG*eT*eA*eG*e[5mC]*e[5mC]) [compound 147494]
%INHIB of mouse apolipoprotein B mRNA levels: 84%

147495 (antisense eG*eT*eT*eA*eG*dG*dA*d[5mC]*d[5mC]*dA*dG*dG*dG*dA*dT*eT*eG*eT*eG*eA) [compound 147495]
%INHIB of mouse apolipoprotein B mRNA levels: 0%

147496 (antisense eA*e[5mC]*e[5mC]*eA*eT*dG*dG*dA*dA*dA*dA*d[5mC]*dT*dG*dG*e[5mC]*eA*eA*e[5mC]*eT) [compound 147496]
%INHIB of mouse apolipoprotein B mRNA levels: 19%

147498 (antisense eT*eG*eG*eG*e[5mC]*dA*dA*d[5mC]*dG*dA*dT*dA*dT*d[5mC]*dT*eG*eA*eT*eT*eG) [compound 147498]
%INHIB of mouse apolipoprotein B mRNA levels: 0%

147499 (antisense e[5mC]*eT*eG*e[5mC]*eA*dG*dG*dG*d[5mC]*dG*dT*d[5mC]*dA*dG*dT*eG*eA*e[5mC]*eA*eA) [compound 147499]
%INHIB of mouse apolipoprotein B mRNA levels: 29%

147501 (antisense e[5mC]*eT*eT*eG*eG*dT*dT*dA*dA*dA*d[5mC]*dT*dA*dA*dT*eG*eG*eT*eG*e[5mC]) [compound 147501]
%INHIB of mouse apolipoprotein B mRNA levels: 18%

147502 (antisense eA*eT*eG*eG*eG*dA*dG*d[5mC]*dA*dT*dG*dG*dA*dG*dG*eT*eT*eG*eG*e[5mC]) [compound 147502]
%INHIB of mouse apolipoprotein B mRNA levels: 16%

147503 (antisense eA*eA*eT*eG*eG*dA*dT*dG*dA*dT*dG*dA*dA*dA*d[5mC]*eA*eG*eT*eG*eG) [compound 147503]
%INHIB of mouse apolipoprotein B mRNA levels: 26%

147505 (antisense eG*eG*eA*eA*eG*dT*dG*dA*dG*dA*d[5mC]*dT*dT*dT*d[5mC]*eT*eA*eA*eG*e[5mC]) [compound 147505]
%INHIB of mouse apolipoprotein B mRNA levels: 76%

147506 (antisense eA*eG*eG*eA*eA*dG*dG*dA*dA*d[5mC]*dT*d[5mC]*dT*dT*dG*eA*eT*eA*eT*eT) [compound 147506]
%INHIB of mouse apolipoprotein B mRNA levels: 58%

147507 (antisense eA*eT*eT*eG*eG*d[5mC]*dT*dT*d[5mC]*dA*dT*dT*dG*dG*d[5mC]*eA*eA*e[5mC]*eA*e[5mC]) [compound 147507]
%INHIB of mouse apolipoprotein B mRNA levels: 81%

147759 (antisense eA*eG*eG*eT*eG*dA*dG*dG*dA*dA*dG*dT*dT*dG*dG*eA*eA*eT*eT*e[5mC]) [compound 147759]
%INHIB of mouse apolipoprotein B mRNA levels: 19%

147761 (antisense eG*eT*eT*e[5mC]*eA*dT*dG*dG*dA*dT*dT*d[5mC]*d[5mC]*dT*dT*e[5mC]*eA*eG*eG*eA) [compound 147761]
%INHIB of mouse apolipoprotein B mRNA levels: 45%

147762 (antisense eA*eT*eG*e[5mC]*eT*d[5mC]*d[5mC]*dA*dT*dT*d[5mC]*dT*d[5mC]*dA*d[5mC]*eA*eT*eG*e[5mC]*eT) [compound 147762]
%INHIB of mouse apolipoprotein B mRNA levels: 46%

147763 (antisense eT*eG*e[5mC]*eG*eA*d[5mC]*dT*dG*dT*dG*dT*d[5mC]*dT*dG*dA*eT*eT*eT*e[5mC]*e[5mC]) [compound 147763]
%INHIB of mouse apolipoprotein B mRNA levels: 34%

147764 (antisense eG*eT*e[5mC]*e[5mC]*e[5mC]*dT*dG*dA*dA*dG*dA*dT*dG*dT*d[5mC]*eA*eA*eT*eG*e[5mC]) [compound 147764]
Percent Inhibition of mouse apolipoprotein B mRNA levels (50 nM): 48%
Percent Inhibition of mouse apolipoprotein B mRNA levels (150 nM): 84%
Percent Inhibition of mouse apolipoprotein B mRNA levels (300 nM): 90%
%INHIB of mouse apolipoprotein B mRNA levels: 97%

147765 (antisense eA*eG*eG*e[5mC]*e[5mC]*d[5mC]*dA*dG*dT*dT*d[5mC]*d[5mC]*dA*dT*dG*eA*e[5mC]*e[5mC]*e[5mC]*eT) [compound 147765]
%INHIB of mouse apolipoprotein B mRNA levels: 59%

147766 (antisense eG*eG*eA*eG*e[5mC]*d[5mC]*d[5mC]*dA*d[5mC]*dG*dT*dG*d[5mC]*dT*dG*eA*eG*eA*eT*eT) [compound 147766]
%INHIB of mouse apolipoprotein B mRNA levels: 59%

147767 (antisense e[5mC]*eG*eT*e[5mC]*e[5mC]*dT*dT*dG*dA*dG*d[5mC]*dA*dG*dT*dG*e[5mC]*e[5mC]*e[5mC]*eG*eA) [compound 147767]
%INHIB of mouse apolipoprotein B mRNA levels: 5%

147768 (antisense e[5mC]*e[5mC]*e[5mC]*eA*eT*dA*dT*dG*dG*dA*dG*dA*dA*dA*dT*e[5mC]*e[5mC]*eT*eT*e[5mC]) [compound 147768]
%INHIB of mouse apolipoprotein B mRNA levels: 24%
